Assay results as given in patent US10478407B2, “Pharmaceutical composition for viral infections” (The Administrators of the Tulane Educational Fund, priority 2018, dated 2019).

How the values were obtained:
[1] = system: Ebola virus (Zaire 76); settings: 5 μg/ml; FIG. 17
[2] = system: Herpes simplex virus type 1, ATCC VR-733, Strain F(1); assay: Virucidal suspension test of solutions A-18 to D-18 against HSV-1, Vero indicator cells (Example 18); type: cell-based; settings: for viral inhibitory effect: comparable concentrations
Method: (§1) A suspension of virus was exposed to the use dilutions of the products. At the end of the exposure time, an aliquot was removed, neutralized by serial dilution, and assayed for the presence of virus. The virus controls, cytotoxicity controls, and neutralization controls were assayed in parallel. Antiviral properties of the solutions were evaluated and compared at the specified concentrations and time intervals.
Dilutions: 1:5 defined as 1 ml test substance+4 parts sterile PBS=0.2 mg/ml
• 1:10 defined as 1 ml test substance+9 parts sterile PBS=0.1 mg/ml • 1:15 defined as 1 ml test substance+14 parts sterile PBS=0.07 mg/ml • 1:20 defined as 1 ml test substance+19 parts sterile PBS=0.05 mg/ml • 1:25 defined as 1 ml test substance+24 parts sterile PBS=0.04 mg/ml Virus: Herpes simplex virus type 1, ATCC VR-733, Strain F(1) Exposure Time: 30 minutes Exposure Temperature: Room temperature (22.0° C.) Organic Soil Load: 1% fetal bovine serum Test Medium: Minimum Essential Medium (MEM) supplemented with 5% (v/v) heat-inactivated fetal bovine serum (FBS), […], 100 units/ml penicillin, and 2.5 μg/ml amphotericin B. Indicator Cell Cultures: Vero Results
A similar experiment was run with 15 minutes contact time. The graphical representation can be seen in FIG. 6.

[3] = system: Herpes simplex virus type 1, ATCC VR-733, Strain F(1); assay: Virucidal suspension test of solutions A-17 and B-17 against HSV-1, Vero indicator cells (Example 17); type: cell-based
Method: as §1, with “each pre-determined” for “end of the”, “time” for “time,”
Dilutions: FS (undiluted) defined as 1 ml test substance+0 ml PBS
• 1:10 defined as 1 ml test substance+9 ml PBS • 1:100 defined as 1 ml of the 1:10 dilution+9 ml PBS Virus: Herpes simplex virus type 1, ATCC VR-733, Strain F(1) Exposure Time: 15 minutes and 60 minutes Exposure Temperature: Room temperature (22.0° C.) Organic Soil Load: 1% fetal bovine serum Test Medium: Minimum Essential Medium (MEM) supplemented with 5% (v/v) heat-inactivated fetal bovine serum (FBS), 10 μg/ml gentamicin, 100 units/ml penicillin, and 2.5 μg/ml amphotericin B. Indicator Cell Cultures: Vero Results

[4] = 15 minutes contact time, FIG. 6
[5] = dilution 1:5 = 0.2 mg/ml, 30 minutes exposure, 22.0° C.
[6] = dilution 1:10 = 0.1 mg/ml, 30 minutes exposure
[7] = dilution 1:15 = 0.07 mg/ml, 30 minutes exposure
[8] = dilution 1:20 = 0.05 mg/ml, 30 minutes exposure
[9] = dilution 1:25 = 0.04 mg/ml, 30 minutes exposure
[10] = FS (undiluted), 15 minutes exposure, 22.0° C., stock A-17 1 mg/mL, B-17 10 mg/mL
[11] = FS (undiluted), 60 minutes exposure
[12] = dilution 1:10, 15 minutes exposure
[13] = dilution 1:10, 60 minutes exposure
[14] = dilution 1:100, 15 minutes exposure
[15] = dilution 1:100, 60 minutes exposure

Substance	viral inhibitory effect [2, 4]	% Reduction [2, 5] [%]	Log10 Reduction [2, 5] [log10]	% Reduction [2, 6]	Log10 Reduction [2, 6]	% Reduction [2, 7]	Log10 Reduction [2, 7]	% Reduction [2, 8]	Log10 Reduction [2, 8]	% Reduction [2, 9]	Log10 Reduction [2, 9]	other results
C12-alkyl(ethylbenzyl) dimethylammonium chloride												deactivation of Ebola virus [1]: Complete deactivation
C12-alkyl(ethylbenzyl) dimethylammonium chloride [Formulation A-18]	complete inactivation	≥99.997	≥4.5	99.4%	2.25 log10	98.2%	1.75 log10	96.8%	1.5 log10	90.0%	1 log10	% Reduction [2, 4]: 99.997%; log10 reduction [2, 4]: 6.75 log10
C14-alkyl(ethylbenzyl) dimethylammonium chloride [Formulation B-18]		94.4	1.24	43.8%	0.25 log10	No Reduction	No Reduction	No Reduction	No Reduction	No Reduction	No Reduction	
benzalkonium chloride [Formulation B-17]												% reduction in viral titer [3, 10]: ≥ 99.99%; log10 reduction in viral titer [3, 10]: ≥ 4.00 log10; % reduction in viral titer [3, 11]: ≥ 99.98%; log10 reduction in viral titer [3, 11]: ≥ 3.75 log10; % reduction in viral titer [3, 12]: ≥ 99.999%; log10 reduction in viral titer [3, 12]: ≥ 5.00 log10; % reduction in viral titer [3, 13]: ≥ 99.998%; log10 reduction in viral titer [3, 13]: ≥ 4.75 log10; % reduction in viral titer [3, 14]: 90.0%; log10 reduction in viral titer [3, 14]: 1 log10; % reduction in viral titer [3, 15]: 99.7%; log10 reduction in viral titer [3, 15]: 2.5 log10
benzalkonium chloride [Formulation C-18, reference compound]	no viral inhibitory effect	43.8	0.25	No Reduction	No Reduction	No Reduction	No Reduction	No Reduction	No Reduction	No Reduction	No Reduction	
